Values after ≈ are worked out from the molar mass of the structure shown. Like-named read-outs stand apart in the source and are kept apart here.
Tests used:
Assay in all cases: In vitro antifungal activity, microbroth dilution MIC
Assay type in all cases: cell-based
[1] = system: Candida pseudotropicalis K. 11658; conditions: Kluyveromyces marxianus, 4 to 48 hours
Procedure, shortened: (§1)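 Broth microdilution adapted from NCCLS M27, in RPMI-1640 with 0.165 M MOPS, pH 7.0. Yeast or mould inoculum at 2×10^3 CFU/ml was mixed 1:1 with DMSO-derived compound solutions (200 to 0.10 μg/ml before mixing) and incubated at 35 °C for 4 to 48 h. MIC was the concentration showing no growth.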

[2] = system: Cryptococcus neoformans B. 42419; conditions: Cryptococcus neoformans, 4 to 48 hours
Procedure, shortened: as §1

[3] = system: Trichophyton mentagrophytes A. 9129; conditions: Trichophyton mentagrophytes
Procedure, shortened: as §1

[4] = system: Cryptococcus neoformans IFM. 40092; conditions: Cryptococcus neoformans
Procedure, shortened: as §1

Candida krusei K. 11655 = conditions: Pichia kudriavzevii, 4 to 48 hours
Procedure, shortened: as §1

[5] = system: Candida albicans A. 10231; conditions: Candida albicans, 4 to 48 hours
Procedure, shortened: as §1

[6] = system: Aspergillus furnigatus B. 19119; conditions: Aspergillus
Procedure, shortened: as §1

[7] = system: Torulopsis glabrata B. 16205; conditions: Nakaseomyces glabratus, 4 to 48 hours
Procedure, shortened: as §1

[8] = system: Candida tropicalis A. 13803; conditions: Candida tropicalis, 4 to 48 hours
Procedure, shortened: as §1

[9] = system: Candida albicans IFO. 1385; conditions: Candida albicans, 4 to 48 hours
Procedure, shortened: as §1

Candida albicans C1-2 = conditions: Candida albicans, 4 to 48 hours
Procedure, shortened: as §1

[10] = system: Candida parapsitosis A. 7330; conditions: Candida, 4 to 48 hours
Procedure, shortened: as §1

[11] = system: Aspergillus niger A. 16404; conditions: Aspergillus niger
Procedure, shortened: as §1

[12] = system: Trichophyton mentagrophytes B. 32663; conditions: Trichophyton mentagrophytes
Procedure, shortened: as §1

[13] = C. pseudotropicalis K. 11658, RPMI-1640, 35° C., read-out: Minimal inhibitory concentration (MIC)
[14] = K.11658, RPMI-1640, 35° C., no growth observed, read-out: Minimal inhibitory concentration(MIC), C. pseudotropicalis K. 11658
[15] = B.42419, RPMI-1640, 35° C., no growth observed, read-out: Minimal inhibitory concentration(MIC), Cry. neoformans B. 42419
[16] = Cry. neoformans B. 42419, RPMI-1640, 35° C., read-out: Minimal inhibitory concentration (MIC)
[17] = A.9129, RPMI-1640, 35° C., 4 to 48 hours, no growth observed, read-out: Minimal inhibitory concentration(MIC), T. mentagrophytes A. 9129
[18] = A.9129, RPMI-1640, 35° C., no growth observed, read-out: Minimal inhibitory concentration (MIC), T. mentagrophytes A. 9129
[19] = T. mentagrophytes A. 9129, RPMI-1640, 35° C., 4 to 48 hours, read-out: Minimal inhibitory concentration (MIC)
[20] = Cry. neoformans IFM. 40092, RPMI-1640, 35° C., 4 to 48 hours, read-out: Minimal inhibitory concentration (MIC)
[21] = IFM.40092, RPMI-1640, 35° C., 4 to 48 hours, no growth observed, read-out: Minimal inhibitory concentration(MIC), Cry. neoformans IFM. 40092
[22] = IFM.40092, RPMI-1640, 35° C., no growth observed, read-out: Minimal inhibitory concentration (MIC), Cry. neoformans IFM. 40092
[23] = C. krusei K. 11655, RPMI-1640, 35° C., read-out: Minimal inhibitory concentration (MIC)
[24] = K.11655, RPMI-1640, 35° C., no growth observed, read-out: Minimal inhibitory concentration(MIC), C. krusei K. 11655
[25] = A.10231, RPMI-1640, 35° C., no growth observed, read-out: Minimal inhibitory concentration(MIC), C. albicans A. 10231
[26] = C. albicans A. 10231, RPMI-1640, 35° C., read-out: Minimal inhibitory concentration (MIC)
[27] = A furnigatus B. 19119, RPMI-1640, 35° C., 4 to 48 hours, read-out: Minimal inhibitory concentration (MIC)
[28] = B.19119, RPMI-1640, 35° C., 4 to 48 hours, no growth observed, read-out: Minimal inhibitory concentration(MIC), A furnigatus B. 19119
[29] = B.19119, RPMI-1640, 35° C., no growth observed, read-out: Minimal inhibitory concentration (MIC), A furnigatus B. 19119
[30] = B.16205, RPMI-1640, 35° C., no growth observed, read-out: Minimal inhibitory concentration(MIC), T. glabrata B. 16205
[31] = T. glabrata B. 16205, RPMI-1640, 35° C., read-out: Minimal inhibitory concentration (MIC)
[32] = A.13803, RPMI-1640, 35° C., no growth observed, read-out: Minimal inhibitory concentration(MIC), C. tropicalis A. 13803
[33] = C. tropicalis A. 13803, RPMI-1640, 35° C., read-out: Minimal inhibitory concentration (MIC)
[34] = C. albicans IFO. 1385, RPMI-1640, 35° C., read-out: Minimal inhibitory concentration (MIC)
[35] = IFO.1385, RPMI-1640, 35° C., no growth observed, read-out: Minimal inhibitory concentration(MIC), C. albicans IFO. 1385
[36] = C12, C. albicans C1-2, RPMI-1640, 35° C., read-out: Minimal inhibitory concentration (MIC)
[37] = C12, RPMI-1640, 35° C., no growth observed, read-out: Minimal inhibitory concentration(MIC), C. albicans C1-2
[38] = A.7330, RPMI-1640, 35° C., no growth observed, read-out: Minimal inhibitory concentration(MIC), C. parapsitosis A. 7330
[39] = C. parapsitosis A. 7330, RPMI-1640, 35° C., read-out: Minimal inhibitory concentration (MIC)
[40] = A. niger A. 16404, RPMI-1640, 35° C., 4 to 48 hours, read-out: Minimal inhibitory concentration (MIC)
[41] = A.16404, RPMI-1640, 35° C., 4 to 48 hours, no growth observed, read-out: Minimal inhibitory concentration(MIC), A. niger A. 16404
[42] = A.16404, RPMI-1640, 35° C., no growth observed, read-out: Minimal inhibitory concentration (MIC), A. niger A. 16404
[43] = B.32663, RPMI-1640, 35° C., 4 to 48 hours, no growth observed, read-out: Minimal inhibitory concentration(MIC), T. mentagrophytes B. 32663
[44] = B.32663, RPMI-1640, 35° C., no growth observed, read-out: Minimal inhibitory concentration (MIC), T. mentagrophytes B. 32663
[45] = T. mentagrophytes B. 32663, RPMI-1640, 35° C., 4 to 48 hours, read-out: Minimal inhibitory concentration (MIC)

Compound	MIC [1, 13] [mg/L]	MIC [1, 14] [mg/L]	MIC [2, 15] [mg/L]	MIC [2, 16] [mg/L]	MIC [3, 17] [mg/L]	MIC [3, 18] [mg/L]	MIC [3, 19] [mg/L]	MIC [4, 20] [mg/L]	MIC [4, 21] [mg/L]	MIC [4, 22] [mg/L]	MIC (Candida krusei K. 11655; [23]) [mg/L]	MIC (Candida krusei K. 11655; [24]) [mg/L]	MIC [5, 25] [mg/L]	MIC [5, 26] [mg/L]	MIC [6, 27] [mg/L]	MIC [6, 28] [mg/L]	MIC [6, 29] [mg/L]	MIC [7, 30] [mg/L]	MIC [7, 31] [mg/L]	MIC [8, 32] [mg/L]	other results
CCC(C)n1ncn(-c2ccc(N3CCN(c4ccc(OCC5COC(Cn6cncn6)(c6ccc(Cl)cc6Cl)O5)cc4)CC3)cc2)c1=O (stereo not drawn) [itraconazole, reference compound]	0.39 (≈ 0.553 µM)	0.39 (≈ 0.553 µM)	0.39 (≈ 0.553 µM)	0.39 (≈ 0.553 µM)	≤ 0.1	≤ 0.1	≤ 0.1	≤ 0.1	≤ 0.1	≤ 0.1	0.39 (≈ 0.553 µM)	0.39 (≈ 0.553 µM)	> 100	> 100	≤ 0.1	≤ 0.1	≤ 0.1	50 (≈ 70.9 µM)	50 (≈ 70.9 µM)	> 100	MIC [8, 33]: > 100 mg/L; MIC [9, 34]: 1.56 mg/L (≈ 2.21 µM); MIC [9, 35]: 1.56 mg/L (≈ 2.21 µM); MIC (Candida albicans C1-2; [36]): > 100 mg/L; MIC (Candida albicans C1-2; [37]): > 100 mg/L; MIC [10, 38]: 0.78 mg/L (≈ 1.11 µM); MIC [10, 39]: 0.78 mg/L (≈ 1.11 µM); MIC [11, 40]: 1.56 mg/L (≈ 2.21 µM); MIC [11, 41]: 1.56 mg/L (≈ 2.21 µM); MIC [11, 42]: 1.56 mg/L (≈ 2.21 µM); MIC [12, 43]: ≤ 0.1 mg/L; MIC [12, 44]: ≤ 0.1 mg/L; MIC [12, 45]: ≤ 0.1 mg/L
OC(Cn1cncn1)(Cn1cncn1)c1ccc(F)cc1F [fluconazole, reference compound]	12.5 (≈ 40.8 µM)	12.5 (≈ 40.8 µM)	25 (≈ 81.6 µM)	25 (≈ 81.6 µM)	50 (≈ 163 µM)	50 (≈ 163 µM)	50 (≈ 163 µM)	3.13 (≈ 10.2 µM)	3.13 (≈ 10.2 µM)	3.13 (≈ 10.2 µM)	25 (≈ 81.6 µM)	25 (≈ 81.6 µM)	> 100	> 100	> 100	> 100	> 100	100 (≈ 327 µM)	100 (≈ 327 µM)	> 100	MIC [8, 33]: > 100 mg/L; MIC [9, 34]: 12.5 mg/L (≈ 40.8 µM); MIC [9, 35]: 12.5 mg/L (≈ 40.8 µM); MIC (Candida albicans C1-2; [36]): > 100 mg/L; MIC (Candida albicans C1-2; [37]): > 100 mg/L; MIC [10, 38]: 12.5 mg/L (≈ 40.8 µM); MIC [10, 39]: 12.5 mg/L (≈ 40.8 µM); MIC [11, 40]: > 100 mg/L; MIC [11, 41]: > 100 mg/L; MIC [11, 42]: > 100 mg/L; MIC [12, 43]: 12.5 mg/L (≈ 40.8 µM); MIC [12, 44]: 12.5 mg/L (≈ 40.8 µM); MIC [12, 45]: 12.5 mg/L (≈ 40.8 µM)
